According to paper PMC8478151 (European journal of pharmacology, 2021):
Counter-ions that a name gives are not always drawn.

Target: α7 nicotinic acetylcholine receptor (Homo sapiens, UniProt P36544)
Assay type: cell-based

Chain of α7 nicotinic acetylcholine receptor (P36544 23-502): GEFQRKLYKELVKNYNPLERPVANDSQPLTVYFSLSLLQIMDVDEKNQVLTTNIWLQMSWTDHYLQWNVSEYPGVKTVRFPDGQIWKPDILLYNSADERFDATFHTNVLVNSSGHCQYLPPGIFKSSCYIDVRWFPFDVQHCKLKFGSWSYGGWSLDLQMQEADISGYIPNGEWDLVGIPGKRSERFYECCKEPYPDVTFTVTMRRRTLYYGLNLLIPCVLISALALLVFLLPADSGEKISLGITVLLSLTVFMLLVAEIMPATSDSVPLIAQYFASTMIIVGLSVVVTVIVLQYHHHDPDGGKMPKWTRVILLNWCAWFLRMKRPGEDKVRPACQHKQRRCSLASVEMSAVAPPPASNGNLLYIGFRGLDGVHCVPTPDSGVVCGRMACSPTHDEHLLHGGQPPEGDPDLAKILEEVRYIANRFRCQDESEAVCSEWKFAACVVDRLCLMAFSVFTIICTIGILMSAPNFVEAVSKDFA

O=C(c1ccc(-c2cccc(C(F)(F)F)c2)o1)N1CCN2CCC1CC2 [NS6740, 1,4-diazabicyclo[3.2.2]nonan-4-yl(5-(3-(trifluoromethyl)-phenyl)-furan-2-yl)methanone hydrochloride]
EC50: 420 nM
